The term melting point denotes the temperature of the solid-liquid transition.

A value given as a limit tells only on which side of the number the result lay.

Turning to `O=C1CC2CCc3ccc(Cl)cc3C2=NN1c1ccccc1` (stereo unspecified), the melting point is 120 to 122 °C. Under `CCCCCCOc1ccc(C(=O)NCCC(C)(C)C)cn1` stands 75 to 76.5 °C; under `COc1cc(F)ccc1-c1ccc(S(=O)(=O)N2c3ccccc3CC2C(=O)NCCOc2ccc(C(=O)O)cc2)cc1` (stereo unspecified), 102 °C; under `CC(=O)OCCCCn1cnc2c(Cl)nc(Nc3ccccc3)nc21`, 195 to 197 °C.

`O=C(NC(=O)C(c1ccccc1)c1ccccc1)OC1CCCC1` had a melting point of 120 to 123 °C.

In turn, `COC(=O)c1ccc(-c2ccc(NC(=O)c3ccc(OC)c(C#CCN(C)C)c3)cc2)cc1` came in with a melting point of 234 to 237 °C. For `COc1ccc(C(C#N)=NO)cc1OC`, the melting point lay within 183 to 191 °C. In turn, `CCc1nc2c(cnn2CC)c(NC2CCOCC2)c1CNC(=O)c1cc(C)cc(C(=O)NCc2ccc(OC)c(-c3cccc(CN4CCNC(C)C4)c3)c2)c1` (stereo unspecified) returned a melting point of 121 to 123 °C. Consider `COc1cc2c(cc1O)CCN(Cc1ccc(OC)c(OC)c1)C2`, for which the melting point lay in the range of 146 to 147 °C. For the compound `Oc1cc2c(nn1)CCCCCCCCCC2`, the melting point lay within 188 to 189 °C.

For `O=C(O)COCC(=O)NCCCCCCCNC(=O)OCc1ccccc1`, the melting point is 74 to 74.5 °C. As to `Cc1[nH]c2ccccc2c1CCN1CCN(NC(=O)c2ccccc2)CC1`, the melting point lay within 130 to 133 °C.

The compound `O=C(O)C1=Cc2cc(C(F)(F)F)ccc2OC1C(F)(F)F` (stereo unspecified) displayed a melting point of 144 to 145 °C.

With `CSC1(CC(=O)O)CCC1`, the melting point was in the range of 43 to 46 °C. As for `Cc1cc(Br)ccc1NC(=O)c1cccc(S(=O)(=O)N2CCCCCC2)c1`, the melting point was in the range of 177 to 179 °C. As for `CCOC(=O)c1cn(-c2nonc2C)c2cc(F)c(F)c(C)c2c1=O`, the melting point turned out to be 174 °C. `COCC(=O)NCCC1CCCc2ccc(OC)cc21` (single isomer, unassigned; (-)) returned a melting point of 58 to 60 °C. For the compound `Nc1nc(Nc2cccnc2)nn1-c1ccccn1`, the melting point came to 256 °C. The compound `OC(CN1CCN(C(c2ccccc2)c2ccccc2)CC1)c1ccc(OCc2ccccc2)cc1` (stereo unspecified) came in with a melting point of 129 °C. In turn, `CN(Cc1ccc(NC(=O)C2=Cc3cc(-c4ccc(OC5CCOCC5)cc4)ccc3S(=O)(=O)CC2)cc1)C1CCOCC1` yielded a melting point of 227 to 229 °C.

Compound `O=C1OC2CC1(O)CC(O)C2O` (stereo unspecified) returned a melting point of 184 to 188 °C. Compound `NC(=S)C1(c2ccccn2)CCCS1` (stereo unspecified) came in with a melting point of 192 °C. Under `N#Cc1cccc(-c2ccc(=O)n(Cc3cccc(-c4ncc(O)cn4)c3)n2)c1` stands 245 to 248 °C. Under `O=C(c1ccc(Cl)cc1Cl)C1(c2cccnc2)CC1` stands 83 °C; under `CCS(=O)(=O)CCc1ccc2[nH]cc(CC3CCCN3C)c2c1` (stereo unspecified), 59 to 62 °C.

As for `O=C(O)CNC1CCc2ccc(O)cc21` (stereo unspecified), the melting point was 260 °C. Turning to `COc1cccc([C@H]2O[C@H](CC(=O)Nc3ccc4[nH]c(C(=O)O)cc4c3)C(=O)N(CC(C)(C)CO)c3ccc(Cl)cc32)c1OC`, the melting point lay in the range of 200 to 201 °C. Compound `COc1cc(NC(=S)Nc2ccccc2)ccn1` came in with a melting point of 138 to 141 °C. On to `Cc1nc(-c2ccc(Br)cc2)n(-c2ccc(S(C)(=O)=O)cn2)n1`, for which the melting point fell in the range of 211 to 212 °C.

`Cc1cc(C(=O)N2Cc3ccc(C(=O)N(C)C[C@@H]4OC(=O)O[C@H]4[C@H](O)[C@H]4COC(=O)O4)n3Cc3ccccc32)ccc1C1=CCCCC1`: the melting point was 162 to 168 °C. `CN(C)CCOc1ccc(-c2n[nH]c3ncccc23)cc1` came in with a melting point of 132 to 134 °C. Compound `COC1(c2cccc(OCc3ccc(-n4cnc(-c5ccccc5)c4)cc3)c2)CCOCC1` returned a melting point of 98 to 100 °C. The compound `C[C@@H](Nc1ncnc2[nH]c(-c3ccc(CN4CCN(C(=O)OC(C)(C)C)CC4)cc3)cc12)c1ccccc1` gave a melting point of 244 to 246 °C. For the compound `CN(C)CCNC(=O)c1nnc(-c2ccccc2)cc1-c1cccc([N+](=O)[O-])c1`, the melting point fell in the range of 157 to 158 °C. For `O=C1OC(c2ccccc2)(c2ccccc2)C2CN(S(=O)(=O)c3ccccc3)CCN12` (stereo unspecified), the melting point fell in the range of 236 to 237 °C. Compound `CCCCNC(=O)c1ccc(Cl)c(-n2nc(CCCC)n(Cc3ccc(-c4ccccc4S(N)(=O)=O)cc3F)c2=O)c1` had a melting point of 108 to 110 °C. For the compound `CCCCCCCNC(=O)N(C)c1cccc(-c2ccc(C=CC(=O)O)cc2)c1`, the melting point is 125 to 126 °C.

`Cc1cccc(C)c1N1Cc2ccccc2P1(C)=O` (stereo unspecified): the melting point lay within 128 to 129 °C.

On to `NS(=O)(=O)c1cc(CCNC(=O)c2cnc3ccccc3c2)ccc1OCCOCC(F)(F)F`, for which the melting point fell in the range of 206 to 210 °C.

In turn, `CCC(C)c1ccccc1SC1=C(O)CC(c2ccccc2)(c2ccccc2)OC1=O` (stereo unspecified) yielded a melting point of 161 to 162 °C. Turning to `O=C(O)CCc1cn(Cc2ccc(OCc3csc(-c4ccccn4)n3)cc2)cc1-c1ccccc1`, the melting point was in the range of 117 to 118 °C. In turn, `CC1=Nc2ccccc2N(Cc2ccccc2)C(=O)C1` gave a melting point of 111 to 113 °C. For `O=C(O)c1ccc(Oc2ccc3c(c2)CCN(CCN2CCCC2)C3=O)cc1`, the melting point is 99 to 100 °C. `FC(F)(F)c1ccc(-c2ccnc(Nc3ccccc3)n2)cc1` returned a melting point of 162 to 163 °C. `C=CCOC(=O)CCCOc1cc([N+](=O)[O-])c(CO)cc1OC` had a melting point of 73 to 75 °C. Under `COC(=O)CCCc1cc2nc(Cl)ccc2n1S(=O)(=O)c1ccc2c(c1)OCCN2C` stands 106 to 110 °C. For `Cn1c(COc2ccc(CC3SC(=O)NC3=O)cc2)nc2cccnc21` (stereo unspecified), the melting point fell in the range of 223 to 225 °C. `O=C(Nc1ccc(C(=O)N2CCc3cn[nH]c3-c3sccc32)c(Cl)c1)c1cc(Cl)ccc1F` came in with a melting point of 282 to 288 °C. Compound `O=[N+]([O-])c1cnc2ccc(S)cc2c1-c1ccccc1` returned a melting point of 160 to 163 °C. `CCC1(CCCCN2CCN(c3ccc(Cl)cc3)CC2)C(=O)Nc2cc(F)ccc21` (stereo unspecified) yielded a melting point of 145 to 147 °C.

Compound `COc1ccc(C(=O)c2ccc(OCCBr)cc2)cc1` came in with a melting point of 112 to 113 °C. For `O=C(Nc1sc2c(c1C(=O)O)CCOC2)c1nn[nH]n1`, the melting point was above 250 °C.

In the case of `COCc1cc(Cl)c2cccc(OC)c2n1`, the melting point was 67 to 69 °C. Under `CC(=O)N1CCCC2=C1CCc1cc(Cl)ccc12` stands 106 to 108 °C; under `COc1ccc2nc(-c3cccc4ccccc34)[nH]c(=O)c2c1`, 174 to 175 °C; under `O=C(CCC(=O)N1CCC(c2ccc(Cl)cc2)CC1)c1ccc2c(c1)CCN(CC(=O)c1ccccc1)CC2`, 108 to 109 °C.

The compound `C=C(C(=C)c1cc(C)sc1C)c1cc(C)sc1C` gave a melting point of 43 to 44 °C. Regarding `CC(C)(C)OC(=O)N1CCN(c2ccc(N3CC(CO)OC3=O)cc2F)CC1` (stereo unspecified), the melting point was 144 to 146 °C. As to `Cc1nnc(NCCCC(C)N2CCNCC2)c2cc3ccccn3c12` (stereo unspecified), the melting point lay within 110 to 111 °C.

With `COc1ccc(C(C#Cc2ccccc2)Cc2noc(C(F)(F)F)n2)cc1OC1CCCC1` (racemic), the melting point lay in the range of 96 to 98 °C.

As to `CS(=O)(=O)c1ccc(-c2nn3c4c(oc3c2-c2ccc(F)cc2)COCC4)cc1`, the melting point was 200 to 201 °C.

Values taken from a melting point compilation (Tetko et al.; mined from patent text by program, amines drawn as free bases though some values may be those of a salt).
